According to patent US20020040018A1, “Subtype selective melatonergics” (priority 2000, published 2002):

Columns and labels:
Type in all cases: in vivo
mice = experiment: Elevated platform test for phencyclidine-like behavioral effects; details: 15 minutes after i.c.v. administration
Description: The in vivo phencyclidine-like behavioral effects of CGX-031-120 is assessed by the elevated platform test as described by Evoniuk et al. (1991). The platform test is a rapid method for evaluating the behavioral effects of phencyclidine-like dissociative anesthetics in mice. […] Alternatively, as a control, a 44.5 nmol dose of MK 801 (dizocilpine) elicited 87.5% drug-induced falls from the elevated platform.

mouse = experiment: Pentylenetetrazole-induced threshold seizure model (timed i.v. infusion); details: i.c.v. administration
Description: The in vivo activity of CGX-031-120 is analyzed using timed intravenous infusion of pentylenetetrazole (White et al., 1995). At time to peak effect, the convulsant solution (0.5% pentylenetetrazole in 0.9% saline containing 10 U.S.P. units/ml heparin sodium) is infused into the tail vein at a constant rate of 0.34 ml/min. The time in seconds from the start of the infusion to the appearance of the first twitch and the onset of clonus is recorded for each drug treated or control animal. The times to each endpoint are converted to mg/kg of pentylenetetrazole for each mouse, and mean and standard error of the mean are calculated.

CF No. 1 mice = experiment: Maximal electroshock, s.c. pentylenetetrazole seizure threshold and threshold tonic extension tests in CF No. 1 mice
Description: In vivo anticonvulsant activity of CGX-031-120 is analyzed in CF No. 1 mice as described by White et al. (1995), using the maximal electroshock, subcutaneous pentylenetetrazole (Metrazol) seizure threshold and threshold tonic extension test.

Compound: CCC(=O)NCCc1c2n(c3ccc(OC)cc13)Cc1ccccc1-2 [CGX-031-120, N-propanol-2-(2-methoxy-6H-isoindolo-[2,1a]-indol-11-yl)-ethanamine]
- drug-induced falls from the elevated platform (mice): no drug-induced falls
- i.v. pentylenetetrazole seizure threshold (mouse): elevates the i.v. pentylenetetrazole seizure threshold
- anticonvulsant activity (CF No. 1 mice): found to have anticonvulsant activity
